Assay results taken from patent EP1920756A1, “Cosmetic matrix for a preservative-free cosmetic formulation” (SYRIO PHARMA S.P.A., priority 2006, dated 2008).
“And” between values parts separate entries of the source, which are not always exact repeats. Equal entries are not always repeated. Where two headings read alike, the source gives them in different places.

Legend:
[1] = test system: stabilized human keratinocytes (HaCaT cells); assay: Cytotoxicity evaluation with MTT method (UNI EN ISO 10993-5 rule); type: cell-based
Description: The test consisted in evaluating the cytotoxicity of the moisturizing cream […] aimed to be used on skin or on mucosae following the UNI EN ISO 10993-5 rule concerning the biological evaluation of medical devices. The cytotoxicity test was carried out towards the keratinocyte, the main cell component of skin and mucosae. […] The method is based on the fact that the mitochondrial dehydrogenases of viable cells are able to cleave the tetrazolium ring of MTT, leading to the formation of purple formazane crystals, which are insoluble in water. The crystals are dissolved in acidified isopropanol and the resulting purple solution is measured spectrophotometrically. An increase or decrease in viable cell number results in a concomitant change in the amount of formazan which is forming and can be considered as an indication of the degree of cytotoxicity caused by the exposure to the tested substances. The cell model employed for the in vitro test consisted of stabilized human keratinocytes (HaCaT cells). Cells were cultured in 24-well plates for 24 hours in DMEM + 10% FCS. Fresh culture medium was then added, supplemented with 10% FCS and containing a sample of the product to be tested so as to reach 6 final dilutions ranging from 5 to 0.15 mg/ml. For each sample of the cream […], three replica were performed. Untreated cells were used as negative control, and as positive control cells were treated with a surfactant with known toxicity, i.e. Sodium Lauryl Sulphate briefly referred to as SLS, dissolved in the culture medium in concentrations ranging from 0.5 mg/ml to 0.03 mg/ml. Specifically, samples with SLS amounts equal to 0.5, 0.25, 0.12, 0.06 and 0.03 mg/ml and […] amounts of 5, 2.5, 1.25, 0.6, 0.3, 0.15 mg/ml were prepared. At the end of treatment, the citotoxicity test (MTT) was carried out. The cells were then washed with washing solution (Dulbecco's Phosphate Buffered Saline). After removal of the solution, the MTT-culture medium was added to each well and the cells were incubated at 37°C. At the end of the incubation period, the MTT-culture medium was removed and a MTT solubilizing solution was added to each well. The plate was then stirred on a plate stirrer, while ensuring that all the crystals were dissolved and had formed a homogeneous solution. The absorbance was then read with a chromatometer equipped with a plate reader, by subtracting background reading. The result was expressed as: % cell survival = (OD treated cells × 100)/(OD untreated cells) [formula] […]

[2] = in contact with healthy and intact skin; cited from earlier work
CD80 (B7.1) = settings: for CD80 (MFI*): THP-1, 48 hours, corrected by the negative control
Description: (§1) The test consisted in evaluating the pro-sensitising stimulus on human monocytes. It was deemed appropriate to use a cell model to evaluate the immunological reactivity of typical immunological cells (monocytes in this case) exposed for a prolonged time (48h) to the tested product in two different concentrations
(§2) The test was thus performed on a monocytes cell line named THP-1, as such a cell type is highly involved in the immunological responses of skin, which is the target organ of the tested cream. […] Nickel is in fact able to trigger in vivo allergising-type immunological reactions (contact sensitising).
(§3) The technique is based on the fact that the recognition of the antigen by the TCR (T Cell Receptor) of T lymphocytes (signal 1) is not functional to the maturation of an effective immune response, if it doesn't occur at the membrane of an antigen-presenting cell able to provide an additional signal (signal 2 or costimulus) qualitatively necessary for the definition of the response type (humoral, cellular, etc). Both B7.1 and B7.2 (collectively: B7) are membrane glycoproteins which are present on the surface of several antigen-presenting cells (dendritic cells, Langerhans cells, monocytes/macrophages, other cell lines such as keratinocytes) and serve as costimula. In fact, both these molecules are ligands of a glycoprotein named CD28, which are present on the T lymphocyte membrane. The triggering of the ligand/receptor system CD28B7 avoids the T cell apoptosis (i.e. the programmed cell death) and cooperates to sustain their proliferation and differentiation. In the first steps of the "physiological" immune response, B7.2 is expressed constitutively and modulates both the Th1 and Th2 responses.
(§4) An increase in expression of these co-stimulatory molecules on monocytes is thus a signal of activation of an immune response the exposure in consequence of a potentially allergising antigen. Functionally, in fact, the expression of co-stimulatory molecules on this cell type corresponds to the competence acquisition for expressing the antigen in the typical location (skin in this case) in which a contact sensitization occurs in vivo.
(§5) They were subjected to a preliminary cytotoxicity screening on THP-1 cells to determinate the concentration at which the substance could be used in vitro without causing cell death, event which causes false results.
(§6) Cell growth culture medium exposed to the same experimental conditions was used as a negative control. […]
(§7) After exposure, the cells were examined for their viability by staining with Trypan Blue dye and by observing under microscope in a corpuscle-counter chamber, collected, washed in a isotonic buffer (PBS) and then marked with a fluoresceinated anti-B7.1 or B7.2 antibody. After further washings to remove the excess antibody, the cells were feeded in a flux cytofluorimeter (FACS, Fluorescence Activated Cell Sorter, Becton Dickinson, Mountain View, CA) for the MFI (Mean Fluorescence Intensity) evaluation, which was proportional to the number of molecules marked per cell and therefore representative of the expression level of the tested co-stimulatory molecules.
(§8) As control (basal fluorescence), the MFI of both untreated THP-1 cells (apart from washings in PBS) and THP-1 cells reacted with a fluoresceinated monoclonal antibody (such as the anti-B7.1 and anti-B7.2), but of irrelevant specificity (isotype-matched control) was evaluated.

CD86 (B7.2) = settings: THP-1, 48 hours, corrected by the negative control
Description: as §1, §2, §3, §4, §5, §6, §7, §8

Row | Compound | Cell viability % (vs negative control) ([1]; Dose 0.03 mg/ml, MTT, Sulphate) | Cell viability % (vs negative control) ([1]; Dose 0.06 mg/ml, MTT, Sulphate) | Cell viability % (vs negative control) ([1]; Dose 0.12 mg/ml, MTT, Sulphate) | Cell viability % (vs negative control) ([1]; Dose 0.25 mg/ml, MTT, Sulphate) | Cell viability % (vs negative control) ([1]; Dose 0.5 mg/ml, MTT, Sulphate) | IC50 ([1]; Homo sapiens, read-out: concentration of 50% inhibition of cell growth (IC50), HaCaT, MTT, theoretical value from regression curve of dose-response) [µg/mL] | concentration of 50% inhibition of cell growth (IC50) ([1]; MTT, theoretical value from regression curve of dose-response, Sulphate) | concentration able to cause an allergic reaction in most of the sensitive subjects [2] | increase in CD80, with respect to untreated controls (CD80 (B7.1); 4 µg/ml, data not shown) | CD80 (MFI*) (CD80 (B7.1); 10 µg/ml) | CD80 (MFI*) (CD80 (B7.1); 20 µg/ml) | CD86 (MFI*) (CD86 (B7.2); 10 µg/ml) | CD86 (MFI*) (CD86 (B7.2); 20 µg/ml)
1 | CCCCCCCCCCCCOS(=O)(=O)[O-].[Na+] [SLS, Sodium Lauryl Sulphate] | 87.6% and 94.7% and 98.5% and 92.7% | 61.0% and 79.6% and 76.7% and 73.9% | 2.5% and 3.9% and 0.2% and 1.9% | 2.3% and 2.9% and 0.1% and 1.5% | 2.3% and 2.2% and 0.2% and 1.2% | 60 | 70 µg/mL and 67 µg/mL | – | – | – | – | – | –
2 | O.O.O.O.O.O.O=S(=O)([O-])[O-].[Ni+2] [Nickel sulphate, Nickel Sulphate (NiSO46H2O)] | – | – | – | – | – | – | – | above 100 ppm | detectable increase | 19.85 and 18.33 | 29.00 and 33.48 | 37.35 and 33.26 | 77.12 and 87.92
